# Assay results as given in the supplement of paper PMC10307832.
# Tests used:
# Assay in all cases: relative viability (nuclei count vs DMSO), 5 days (fraction); higher = more cells survive
# NCI-H1915 = system: NCI-H1915
# Procedure, shortened: (§1)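 A single step with final 0.05% Triton X-100, 1% formaldehyde and 1 ug/ml Hoechst fixed the cells and stained nuclei 5 days after treatment. Lung cancer cell lines in 1536-well plates had been treated by pin tool the day after seeding with one drug alone or a fixed anchor-drug dose plus five library-drug doses (not always all listed) in √10 steps, and nuclei were counted on 4× images. Relative viability is the ratio of nuclei in treated wells to nuclei in vehicle wells, taken as the median of duplicate plates.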
# NCI-H1666 = system: NCI-H1666
# Procedure, shortened: as §1
# LCLC-97TM1 = system: LCLC-97TM1
# Procedure, shortened: as §1
# NCI-H838 = system: NCI-H838
# Procedure, shortened: as §1
# NCI-H727 = system: NCI-H727
# Procedure, shortened: as §1
# NCI-H520 = system: NCI-H520
# Procedure, shortened: as §1
# EKVX = system: EKVX
# Procedure, shortened: as §1
# NCI-H322M = system: NCI-H322M
# Procedure, shortened: as §1
# NCI-H596 = system: NCI-H596
# Procedure, shortened: as §1
# NCI-H23 = system: NCI-H23
# Procedure, shortened: as §1
# NCI-H1792 = system: NCI-H1792
# Procedure, shortened: as §1
# NCI-H661 = system: NCI-H661
# Procedure, shortened: as §1
# NCI-H1437 = system: NCI-H1437
# Procedure, shortened: as §1
# NCI-H441 = system: NCI-H441
# Procedure, shortened: as §1
# NCI-H358 = system: NCI-H358
# Procedure, shortened: as §1
# NCI-H460 = system: NCI-H460
# Procedure, shortened: as §1
# NCI-H1650 = system: NCI-H1650
# Procedure, shortened: as §1
# SK-LU-1 = system: SK-LU-1
# Procedure, shortened: as §1
# NCI-H647 = system: NCI-H647
# Procedure, shortened: as §1
# NCI-H1975 = system: NCI-H1975
# Procedure, shortened: as §1
# PC-3 [JPC-3] = system: PC-3 [JPC-3]
# Procedure, shortened: as §1
compound,measurement,setting,value
CN1CCN(CCOc2cc(OC3CCOCC3)c3c(Nc4c(Cl)ccc5c4OCO5)ncnc3c2)CC1 [Saracatinib] + C[C@@H](Oc1cc(-c2cnn(C3CCNCC3)c2)cnc1N)c1c(Cl)ccc(F)c1Cl [Crizotinib] (partner 1 µM),relative viability,NCI-H1915; first compound 0.02 µM,0.913
same,relative viability,NCI-H1915; first compound 0.2 µM,0.846
same,relative viability,NCI-H1915; first compound 0.6325 µM,0.916
same,relative viability,NCI-H1915; first compound 2 µM,0.875
same,relative viability,NCI-H1666; first compound 0.02 µM,1.04
same,relative viability,NCI-H1666; first compound 0.2 µM,0.965
same,relative viability,NCI-H1666; first compound 0.6325 µM,1.18
same,relative viability,NCI-H1666; first compound 2 µM,0.926
same,relative viability,LCLC-97TM1; first compound 0.02 µM,0.416
same,relative viability,LCLC-97TM1; first compound 0.2 µM,0.268
same,relative viability,LCLC-97TM1; first compound 0.6325 µM,0.457
same,relative viability,LCLC-97TM1; first compound 2 µM,0.316
same,relative viability,NCI-H838; first compound 0.02 µM,0.818
same,relative viability,NCI-H838; first compound 0.2 µM,0.779
same,relative viability,NCI-H838; first compound 0.6325 µM,0.608
same,relative viability,NCI-H838; first compound 2 µM,0.582
same,relative viability,NCI-H727; first compound 0.02 µM,0.904
same,relative viability,NCI-H727; first compound 0.2 µM,0.452
same,relative viability,NCI-H727; first compound 0.6325 µM,0.617
same,relative viability,NCI-H727; first compound 2 µM,0.378
same,relative viability,NCI-H520; first compound 0.02 µM,0.74
same,relative viability,NCI-H520; first compound 0.2 µM,0.732
same,relative viability,NCI-H520; first compound 0.6325 µM,0.531
same,relative viability,NCI-H520; first compound 2 µM,0.37
same,relative viability,EKVX; first compound 0.02 µM,0.927
same,relative viability,EKVX; first compound 0.2 µM,0.865
same,relative viability,EKVX; first compound 0.6325 µM,0.596
same,relative viability,EKVX; first compound 2 µM,0.302
same,relative viability,NCI-H322M; first compound 0.02 µM,0.971
same,relative viability,NCI-H322M; first compound 0.2 µM,0.831
same,relative viability,NCI-H322M; first compound 0.6325 µM,0.916
same,relative viability,NCI-H322M; first compound 2 µM,0.6
same,relative viability,NCI-H596; first compound 0.02 µM,0.727
same,relative viability,NCI-H596; first compound 0.2 µM,0.775
same,relative viability,NCI-H596; first compound 0.6325 µM,0.981
same,relative viability,NCI-H596; first compound 2 µM,0.626
same,relative viability,NCI-H23; first compound 0.02 µM,0.528
same,relative viability,NCI-H23; first compound 0.6325 µM,0.557
same,relative viability,NCI-H23; first compound 2 µM,0.419
same,relative viability,NCI-H1792; first compound 0.02 µM,0.94
same,relative viability,NCI-H1792; first compound 0.2 µM,0.922
same,relative viability,NCI-H1792; first compound 0.6325 µM,1.15
same,relative viability,NCI-H1792; first compound 2 µM,0.684
same,relative viability,NCI-H661; first compound 0.02 µM,1.08
same,relative viability,NCI-H661; first compound 0.6325 µM,1.03
same,relative viability,NCI-H661; first compound 2 µM,0.864
same,relative viability,NCI-H1437; first compound 0.02 µM,0.912
same,relative viability,NCI-H1437; first compound 0.2 µM,0.866
same,relative viability,NCI-H1437; first compound 0.6325 µM,0.865
same,relative viability,NCI-H1437; first compound 2 µM,0.943
same,relative viability,NCI-H441; first compound 0.02 µM,0.95
same,relative viability,NCI-H441; first compound 0.2 µM,0.601
same,relative viability,NCI-H441; first compound 0.6325 µM,0.798
same,relative viability,NCI-H441; first compound 2 µM,0.646
same,relative viability,NCI-H358; first compound 0.02 µM,0.54
same,relative viability,NCI-H358; first compound 0.2 µM,0.611
same,relative viability,NCI-H358; first compound 0.6325 µM,0.376
same,relative viability,NCI-H358; first compound 2 µM,0.251
same,relative viability,NCI-H460; first compound 0.02 µM,0.97
same,relative viability,NCI-H460; first compound 0.2 µM,0.501
same,relative viability,NCI-H460; first compound 0.6325 µM,0.696
same,relative viability,NCI-H460; first compound 2 µM,0.566
same,relative viability,NCI-H1650; first compound 0.02 µM,1.03
same,relative viability,NCI-H1650; first compound 0.2 µM,0.637
same,relative viability,NCI-H1650; first compound 0.6325 µM,0.582
same,relative viability,NCI-H1650; first compound 2 µM,0.413
same,relative viability,SK-LU-1; first compound 0.02 µM,0.774
same,relative viability,SK-LU-1; first compound 0.2 µM,0.646
same,relative viability,SK-LU-1; first compound 0.6325 µM,0.404
same,relative viability,SK-LU-1; first compound 2 µM,0.331
same,relative viability,NCI-H647; first compound 0.02 µM,1.11
same,relative viability,NCI-H647; first compound 0.2 µM,0.707
same,relative viability,NCI-H647; first compound 0.6325 µM,0.704
same,relative viability,NCI-H647; first compound 2 µM,0.411
same,relative viability,NCI-H1975; first compound 0.02 µM,1.02
same,relative viability,NCI-H1975; first compound 0.6325 µM,0.823
same,relative viability,NCI-H1975; first compound 2 µM,0.515
same,relative viability,PC-3 [JPC-3]; first compound 0.02 µM,0.997
same,relative viability,PC-3 [JPC-3]; first compound 0.2 µM,0.983
same,relative viability,PC-3 [JPC-3]; first compound 0.6325 µM,0.942
same,relative viability,PC-3 [JPC-3]; first compound 2 µM,0.582
